Data taken from patent US12187709B2 (Genentech, Inc., priority 2021, dated 2025).

How the values were obtained:
Cbl-b = Cbl-b (Homo sapiens (Human), UniProt Q13191); test: Cbl-b LCK Ub TR-FRET assay (Cbl-b Lck HTRF); assay type: biochemical; conditions: for IC50: Cbl-b LCK Ub TR-FRET; for fold-selectivity (Cbl-b over C-cbl) / (fold-selectivity) Cbl-b and C-Cbl Selectivity: ratio C-cbl Lck HTRF IC50 / Cbl-b Lck HTRF IC50
Outline: (§1)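 Detection reagents added, brief spin, 20 min RT. IC50 fit normalized to no-LCK (low) and DMSO (high) controls.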

c-Cbl = c-Cbl (Homo sapiens (Human), UniProt P22681); test: C-Cbl LCK Ub TR-FRET assay (C-cbl Lck HTRF); assay type: biochemical
Outline: as §1

[1] = biological target: Human Cbl-b (residues 40-426) (Homo sapiens (Human), UniProt Q13191); test: Cbl-b SPR assay; assay type: binding; conditions: for Fold of selectivity: C-cbl SPR Kd vs Cbl-b SPR Kd; for Kd: SPR, 20° C.
Outline: (§2)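 Protein captured at 1300-1500 RU; compounds run as 6-point 2-fold series in multi-cycle kinetics (60 s contact, 40 μl/min, 120-1200 s dissociation), fitted 1:1. For slow binders, kd came from chaser-compound occupancy over time, fixed in a single-cycle fit (5 concentrations, top 500 nM).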

c-Cbl (residues 47-435) = c-Cbl (residues 47-435) (Homo sapiens (Human), UniProt P22681); test: c-Cbl SPR assay; assay type: binding; conditions: 20° C.
Outline: as §2

Sequence of Human Cbl-b (residues 40-426) (Q13191 40-426): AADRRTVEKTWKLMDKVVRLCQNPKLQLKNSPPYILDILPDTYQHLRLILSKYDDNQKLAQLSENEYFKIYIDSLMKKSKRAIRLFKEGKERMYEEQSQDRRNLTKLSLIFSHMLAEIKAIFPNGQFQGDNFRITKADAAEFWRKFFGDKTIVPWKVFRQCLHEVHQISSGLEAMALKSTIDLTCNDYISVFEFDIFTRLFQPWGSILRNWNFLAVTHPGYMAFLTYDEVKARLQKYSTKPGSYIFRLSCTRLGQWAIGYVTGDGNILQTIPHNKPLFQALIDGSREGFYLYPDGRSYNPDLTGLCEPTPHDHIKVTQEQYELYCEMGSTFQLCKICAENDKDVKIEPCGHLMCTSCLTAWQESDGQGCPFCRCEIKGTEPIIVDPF
Sequence of Cbl-b (Q13191 40-426): as above
Sequence of c-Cbl (residues 47-435) (P22681 47-435): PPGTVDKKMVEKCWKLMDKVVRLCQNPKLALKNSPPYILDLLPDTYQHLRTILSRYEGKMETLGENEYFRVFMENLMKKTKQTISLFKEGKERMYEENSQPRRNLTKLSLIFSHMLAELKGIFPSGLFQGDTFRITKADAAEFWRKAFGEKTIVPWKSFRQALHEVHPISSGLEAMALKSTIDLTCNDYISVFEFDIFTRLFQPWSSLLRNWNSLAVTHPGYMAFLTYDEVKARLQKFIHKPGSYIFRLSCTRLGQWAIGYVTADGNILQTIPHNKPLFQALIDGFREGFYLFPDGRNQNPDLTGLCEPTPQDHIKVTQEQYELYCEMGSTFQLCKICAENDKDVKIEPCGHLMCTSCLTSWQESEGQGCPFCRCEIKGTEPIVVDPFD
Sequence of c-Cbl (P22681 47-435): as above

Row | SMILES | IC50 (Cbl-b) [nM] | fold-selectivity (Cbl-b over C-cbl) (Cbl-b) | IC50 (c-Cbl) [nM] | Fold of selectivity [1] [×] | Kd [1] [nM] | Kd (c-Cbl (residues 47-435)) [nM] | IC50 (Cbl-b; Example 121) [nM] | (fold-selectivity) Cbl-b and C-Cbl Selectivity (Cbl-b) [x]
1 | Cn1cnnc1[C@]1(c2cccc(N3Cc4c(Cl)cc(CNC5(C)CCC5)cc4C3=O)c2)C[C@H](Cl)C1 [Compound 452, 4-chloro-2-(3-((1s,3s)-3-chloro-1-(4-methyl-4H-1,2,4-triazol-3-yl)cyclobutyl)phenyl)-6-(((1-methylcyclobutyl)amino)methyl)isoindolin-1-one] |  |  | 5.6 | 3.3 | 0.7 | 2.4 | 5.5 | 1.0
2 | CO[C@H]1C[C@](c2cccc(N3Cc4c(cc(CN5CCCCCC5)cc4C(F)(F)F)C3=O)c2)(c2nncn2C)C1 [Compound 490, 6-(azepan-1-ylmethyl)-2-(3-((1r,3r)-3-methxoy-1-(4-methyl-4H-1,2,4-triazol-3-yl)cyclobutyl)phenyl)-4-(trifluoromethyl)isoindolin-1-one] |  |  | 270 | 14 | 32 | 480 | 55 | 5.0
3 | CO[C@H]1C[C@](c2cccc(N3Cc4c(cc(CNCC(C)(C)C)cc4C(F)(F)F)C3=O)c2)(c2nncn2C)C1 [Compound 481, 2-(3-((1r,3r)-3-methoxy-1-(4-methyl-4H-1,2,4-triazol-3-yl)cyclobutyl)phenyl)-6-((neopentylamino)methyl)-4-(trifluoromethyl)isoindolin-1-one] |  |  | 25 | 18 | 1.5 | 27 | 6.2 | 4.0
4 | Cn1cnnc1[C@]1(c2cc(NC3CC(F)(F)C3)nc(N3Cc4c(cc(CNC5(C)CCC5)cc4C(F)(F)F)C3=O)c2)C[C@H](C)C1 [Compound 49, 2-(6-((3,3-difluorocyclobutyl)amino)-4-((1s,3s)-3-methyl-1-(4-methyl-4H-1,2,4-triazol-3-yl)cyclobutyl)pyridin-2-yl)-6-(((1-methylcyclobutyl)amino)methyl)-4-(trifluoromethyl)isoindolin-1-one] | 14 | (1.4x) | 19.6 | 7.0 | 2.2 | 16 |  | 
5 | CO[C@H]1C[C@](c2cccc(N3Cc4c(cc(CN[C@H]5[C@@H]6COC[C@@H]65)cc4C(F)(F)F)C3=O)c2)(c2nncn2C)C1 [Compound 492, 6-(((1R,5S,6r)-3-oxabicyclo[3.1.0]hexan-6-ylamino)methyl)-2-(3-((1r,3R)-3-methoxy-1-(4-methyl-4H-1,2,4-triazol-3-yl)cyclobutyl)phenyl)-4-(trifluoromethyl)isoindolin-1-one] |  |  | 87 | 15 | 12 | 180 | 14 | 6.2
6 | Cn1cnnc1[C@]1(c2cccc(N3Cc4c(cc(CNC5(C)CCC5)cc4C(F)(F)F)C3=O)c2)C[C@H](CF)C1 [Compound 102, 2-(3-((1s,3s)-3-(fluoromethyl)-1-(4-methyl-4H-1,2,4-triazol-3-yl)cyclobutyl)phenyl)-6-(((1-methylcyclobutyl)amino)methyl)-4-(trifluoromethyl)isoindolin-1-one] | 7.2 | 1.5x | 11 | 4.7 | 0.83 | 3.9 |  | 
7 | CCNc1cc(N2Cc3c(cc(CNC4(C)CCC4)cc3C(F)(F)F)C2=O)cc([C@]2(c3nncn3C)C[C@H](C)C2)c1 [Compound 90, 2-(3-(ethylamino)-5-((1r,3r)-3-methyl-1-(4-methyl-4H-1,2,4-triazol-3-yl)cyclobutyl)phenyl)-6-(((1-methylcyclobutyl)amino)methyl)-4-(trifluoromethyl)isoindolin-1-one] | 7.8 | 0.83x | 6.6 | 2.0 | 0.2 | 0.4 |  | 
8 | Cn1cnnc1C1(c2cccc(N3Cc4c(cc(CNC5(C)CCC5)cc4C(F)(F)F)C3=O)c2)CCC1 [Compound 279, 2-(3-(1-(4-methyl-4H-1,2,4-triazol-3-yl)cyclobutyl)phenyl)-6-(((1-methylcyclobutyl)amino)methyl)-4-(trifluoromethyl)isoindolin-1-one] | 6.6 | 1.4x | 9.3 | 6.4 | 1.8 | 12 |  | 
9 | CO[C@H]1C[C@](c2cccc(N3Cc4c(cc(CNCCOC(F)F)cc4C(F)(F)F)C3=O)c2)(c2nncn2C)C1 [Compound 491, 6-(((2-(difluoromethoxy)ethyl)amino)methyl)-2-(3-((1r,3r)-3-methoxy-1-(4-methyl-4H-1,2,4-triazol-3-yl)cyclobutyl)phenyl)-4-(trifluoromethyl)isoindolin-1-one] |  |  | 36 | 17 | 2.9 | 48 | 8.4 | 4.3

Further compounds by falling IC50 (c-Cbl), results first:

Row | IC50 (Cbl-b) [nM] | fold-selectivity (Cbl-b over C-cbl) (Cbl-b) | IC50 (c-Cbl) [nM] | Fold of selectivity [1] [×] | Kd [1] [nM] | Kd (c-Cbl (residues 47-435)) [nM] | IC50 (Cbl-b; Example 121) [nM] | (fold-selectivity) Cbl-b and C-Cbl Selectivity (Cbl-b) [x] | SMILES
10 |  |  | 840 | 8.7 | 120 | 1100 | 130 | 6.4 | CO[C@H]1C[C@](c2cccc(N3Cc4c(cc(CN5CC(C)(O)C5)cc4C(F)(F)F)C3=O)c2)(c2nncn2C)C1 [Compound 478, 6-((3-hydroxy-3-methylazetidin-1-yl)methyl)-2-(3-((1r,3r)-3-methoxy-1-(4-methyl-4H-1,2,4-triazol-3-yl)cyclobutyl)phenyl)-4-(trifluoromethyl)isoindolin-1-one]
11 | 260 | 2.8x | 720 | 0.7 | 560 | 390 |  |  | CC(=O)C1CC([C@H](c2cccc(N3Cc4c(cc(CNC5(C)CCC5)cc4C(F)(F)F)C3=O)c2)c2nncn2C)C1 (single isomer, unassigned) [Compound 385]
12 | 11 | 4.5x | 51 | 5.5 | 5.1 | 28 |  |  | CC[C@@H](NC1(C)CCC1)c1cc2c(c(C(F)(F)F)c1)CN(c1cccc([C@H](c3nncn3C)C3COC3)c1)C2=O [Compound 314, 2-(3-((R)-(4-methyl-4H-1,2,4-triazol-3-yl)(oxetan-3-yl)methyl)phenyl)-6-((R)-1-((1-methylcyclobutyl)amino)propyl)-4-(trifluoromethyl)isoindolin-1-one]
13 | 14 | (2.6x) | 36 | 5.4 | 4 | 22 |  |  | Cn1cnnc1[C@]1(c2cccc(N3Cc4c(cc(CNC5(C)CCC5)cc4C(F)(F)F)C3=O)c2)C[C@H](C#N)C1 [Compound 25, (1s,3s)-3-(4-methyl-4H-1,2,4-triazol-3-yl)-3-(3-(6-(((1-methylcyclobutyl)amino)methyl)-1-oxo-4-(trifluoromethyl)isoindolin-2-yl)phenyl)cyclobutanecarbonitrile]
14 | 11 | 2.3x | 27 | 5.9 | 2.6 | 16 |  |  | Cn1cnnc1[C@@H](c1cccc(N2Cc3c(Cl)cc(CNC4(C)CCC4)cc3C2=O)c1)C1COC1 [Compound 270, (R)-4-chloro-2-(3-((4-methyl-4H-1,2,4-triazol-3-yl)(oxetan-3-yl)methyl)phenyl)-6-(((1-methylcyclobutyl)amino)methyl)-isoindolin-1-one]
15 | 10 | 1.4x | 14 | 5.1 | 7.5 | 38 |  |  | CC[C@@](O)(c1cccc(N2Cc3c(cc(CNC4(C)CCC4)cc3C(F)(F)F)C2=O)c1)c1nncn1C (single isomer, unassigned) [Compound 392]
16 | 9.3 | 0.97x | 9 | 4.7 | 0.9 | 4.2 |  |  | CO[C@H]1C[C@](c2cc(NC3CC3)cc(N3Cc4c(cc(CNC5(C)CCC5)cc4C(F)(F)F)C3=O)c2)(c2nncn2C)C1 [Compound 214, 2-(3-(cyclopropylamino)-5-((1r,3r)-3-methoxy-1-(4-methyl-4H-1,2,4-triazol-3-yl)cyclobutyl)phenyl)-6-(((1-methylcyclobutyl)amino)methyl)-4-(trifluoromethyl)isoindolin-1-one]
17 | 5.2 | 1.4x | 7.1 | 5.5 | 0.4 | 2.2 |  |  | Cn1cnnc1C(c1cccc(N2Cc3c(cc(CNC4(C)CCC4)cc3C(F)(F)F)C2=O)c1)[C@H]1C[C@@H](Cl)C1 (single isomer, unassigned) [Compound 357]
18 | 6 | 1.2x | 7.1 | 5.0 | 0.8 | 4 |  |  | Cn1cnnc1[C@@H](c1cccc(N2Cc3c(cc(CNC4(C)CCC4)cc3C(F)(F)F)C2=O)c1)C1(F)COC1 (single isomer, unassigned) [Compound 380]
